From patent publication US20110306636A1, “OXAZOLE PYRIDINE DERIVATIVES USEFUL AS S1P1 RECEPTOR AGONISTS” (Merck Serono SA, priority 2009, published 2011) come the findings set out here.

Counter-ions that a name gives are not always drawn. Like-named read-outs stand apart in the source and are kept apart here.

Assay [1] has as its target T1, S1P1 (Homo sapiens, UniProt P21453). Kind of assay: 35S-GTPγS binding assay, S1P1 membranes. In kind it is biochemical. As to conditions: membranes from CHO cells expressing S1P1; read-out: S1P1/GTPG EC50. The method, then: (§1) Membranes Preparation: Membranes were prepared from CHO cells expressing S1P1 or S1P3 for use in ligand and 35S-GTPγS binding studies. Cells were suspended in 50 mM TRIS, pH 7.4, 2 mM EDTA, 250 mM Sucrose (buffer A) and 1× Complete protease inhibitor cocktail (Roche), and disrupted at 4° C. by N2 decompression using a cell disruption bomb (Parr Instrument). Following centrifugation at 1000 RPM for 10 min at 4° C., the supernatant was diluted (2×) in buffer A and centrifuged again at 19000 RPM for 75 min at 4° C. The pellet was then suspended in 10 mM HEPES, pH 7.4, 1 mM EDTA, 250 mM Sucrose (Buffer B), and 1× Complete EDTA-free protease inhibitor cocktail and homogenized using a potter. Membranes were flash frozen in liquid N2 and stored at −80° C.
Measurements of 35S-GTPγS Binding: Membranes (1 to 10 μg protein) prepared as described above, were incubated in 96-well Scintiplates (PerkinElmer) with test compounds diluted in DMSO, in 140 μl of 20 mM HEPES, pH 7.4, 10 mM MgCl2, 2 μg/well Saponin, 0.2% fatty acid free BSA (Assay buffer), 125 mM NaCl and 1.5 μM GDP. The assay was initiated with the addition of 60 μl of 1.5 nM [35S]-GTPγS (1100 Ci/mmol; GE Healthcare) in assay buffer. After 60 min incubation at 30° C. on a shaker, plates were centrifuged for 10 min at 2000 RPM. Supernatant was discarded and membrane bound radioactivity was measured on a PerkinElmer 1450 MicroBeta counter. Triplicate samples were averaged and expressed as % response relative to S1P activation in absence of compound (n=2).
The “potency” or the “activity” of the compounds is determined by the EC50 values as evaluated in the above described 35S-GTPγS binding assay.

The target in assay [2] is S1P3 (Homo sapiens, UniProt Q99500). Kind of assay: Receptor binding assay, [33P]sphingosine 1-phosphate competition, S1P3. The method, then: as §1
(§2) Receptor binding assay: [33P]sphingosine 1-phosphate (3000 Ci/mmol; American Radiolabeled Chemicals, Inc.) was added to test compounds in 20% DMSO by competition. Membranes and WGA SPA beads (GE Healthcare) were added to give a final volume of 100 μl in 96-well plates or 50 μl in 384-well plates with assay concentrations of 30 pM or 15 pM [33P]sphingosine 1-phosphate (respectively for S1P1 or S1P3), 50 mM HEPES, pH 7.5, 5 mM MgCl2, 100 mM NaCl, 0.4% fatty acid-free BSA, 1-5 μg/well of proteins in 96-well plates vs 0.6-1 μg/well of proteins in 384-well plates and 100 μg/well of WGA SPA beads in 96-well plates vs 75 μg/well of WGA SPA beads in 384-well plates. Binding was performed for 60 min at RT on a shaker and bound radioactivity was measured on a PerkinElmer 1450 MicroBeta counter. Triplicate samples were averaged and normalized as purcentage of inhibition relative to total binding (only DMSO in well) and non specific binding (1000-fold excess of unlabeled S1P). Binding data were analyzed using the GraphPad Prism program or Genedata software.

In assay [3] the target is T2, human S1P1 Receptor fused to the green fluorescent protein (EGFP) (Homo sapiens, UniProt P21453).
T2 construct: host or cells: U2OS (human bone osteosarcoma epithelial cells), CMV promoter, geneticin selection
Briefly: Internalization of S1P1 in S1P1-U2OS cells by cell imaging analysis. As to conditions: 1 hour incubation, 384-well. In kind it is cell-based. The method, then: Cellular Functional Assays: Internalization of Sphingosine-1-Phosphate Receptor 1 (S1P1) in a Human Cell Line (U2OS) in a 384-Well Format Using a Cell Imaging Analysis.
The S1P1 internalization assay was performed in 384 well plates (Corning® 384 black with clear bottom 3712) using S1P1-U2OS cells from BioImage (C039A), a human epithelial cell line (Human Bone Osteosarcoma Epithelial Cells). These cells expressed the human S1P1 Receptor fused to the green fluorescent protein (EGFP). A standard CMV promoter (cytomegalovirus promoter) controls the expression of S1P1-EGFP and continuous expression was maintained by addition of geneticin to the culture medium.
S1P1 Receptor desensitization induced the internalization of the membrane-localized S1P1-EGFP fusion protein to endosomes, which can be monitored by cell imaging analysis.
The cells are plated in low serum medium (Dulbecco's Modified Eagle Medium (DMEM) with Glutamax-1 and high glucose, 1% Penicillin/Streptomycin, 1% Fetal Calf Serum (FCS), 0.5 mg/ml Geneticin) overnight.
The next day, S1P1-U2OS cells are incubated in 20 μl serum free medium (DMEM with Glutamax-1 and high glucose, 0.1% of fatty-acid free Bovin Serum Albumin (BSA), 10 mM, N′-2-Hydroxyethylpiperazine-N′-2 ethanesulphonic acid (HEPES) 1M) for 2 hours at 37° C./5% CO2.
The cells are then treated with 4 μl compounds/agonists (6×/3% DMSO) for a total volume of 24 μl, and plates are incubated for 1 hour at 37° C./5% CO2.
S1P1-U2OS cells are fixed with 25 μl Paraformaldehyde 8% and stained with Hoechst 33345 dye (1:1000) for 20 minutes.
They were then washed 3 times with Phosphate Buffered Saline (PBS) and plates are sealed.
The internalization of the receptor S1P1-EGFP is measured on Cellomics by calculating the “spot count per object” (“object” corresponds to nuclear and “spot” corresponds to S1P1-EGFP receptor). Internalization data were observed thanks to vHCS View and analyzed using Genedata® software.

Assay [4] deals with T1, S1P1. Kind of assay: Receptor binding assay, [33P]sphingosine 1-phosphate competition, S1P1. The method, then: as §1, §2
Where [5] appears, read: 96 well-plate, read-out: S1P3 binding IC50 (M) (96 well-plate).
Setting [6] is: 384 well-plate, read-out: S1P3 binding IC50 (M) (384 well-plate).
[7] abbreviates: 96 well-plate, read-out: S1P1 binding IC50 (M) (96 well-plate).
The mark [8] stands for this setting: 384 well-plate, read-out: S1P1 binding IC50 (M) (384 well-plate).

S1P3, sequence (Q99500 whole entry, species assumed): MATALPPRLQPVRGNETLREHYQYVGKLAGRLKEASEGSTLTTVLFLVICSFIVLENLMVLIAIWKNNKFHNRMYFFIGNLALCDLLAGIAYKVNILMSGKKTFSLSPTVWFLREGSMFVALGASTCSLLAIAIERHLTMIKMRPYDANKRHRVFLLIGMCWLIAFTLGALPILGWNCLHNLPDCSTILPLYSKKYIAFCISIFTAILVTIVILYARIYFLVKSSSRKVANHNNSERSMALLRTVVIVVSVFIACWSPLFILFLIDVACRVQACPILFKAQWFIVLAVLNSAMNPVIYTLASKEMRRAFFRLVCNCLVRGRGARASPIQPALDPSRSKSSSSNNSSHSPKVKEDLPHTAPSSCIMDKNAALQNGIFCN
T1 sequence (P21453 whole entry, species assumed): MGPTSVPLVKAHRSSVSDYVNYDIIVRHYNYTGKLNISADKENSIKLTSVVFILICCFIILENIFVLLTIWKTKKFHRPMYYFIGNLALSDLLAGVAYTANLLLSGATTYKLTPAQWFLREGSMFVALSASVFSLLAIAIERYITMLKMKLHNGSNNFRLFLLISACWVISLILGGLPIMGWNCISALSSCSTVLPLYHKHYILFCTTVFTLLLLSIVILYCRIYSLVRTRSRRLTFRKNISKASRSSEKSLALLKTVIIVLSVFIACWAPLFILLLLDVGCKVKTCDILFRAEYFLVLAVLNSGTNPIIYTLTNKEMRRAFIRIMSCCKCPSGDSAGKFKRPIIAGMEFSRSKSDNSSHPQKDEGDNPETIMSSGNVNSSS
T2 sequence (P21453 with tags, fused parts or gaps): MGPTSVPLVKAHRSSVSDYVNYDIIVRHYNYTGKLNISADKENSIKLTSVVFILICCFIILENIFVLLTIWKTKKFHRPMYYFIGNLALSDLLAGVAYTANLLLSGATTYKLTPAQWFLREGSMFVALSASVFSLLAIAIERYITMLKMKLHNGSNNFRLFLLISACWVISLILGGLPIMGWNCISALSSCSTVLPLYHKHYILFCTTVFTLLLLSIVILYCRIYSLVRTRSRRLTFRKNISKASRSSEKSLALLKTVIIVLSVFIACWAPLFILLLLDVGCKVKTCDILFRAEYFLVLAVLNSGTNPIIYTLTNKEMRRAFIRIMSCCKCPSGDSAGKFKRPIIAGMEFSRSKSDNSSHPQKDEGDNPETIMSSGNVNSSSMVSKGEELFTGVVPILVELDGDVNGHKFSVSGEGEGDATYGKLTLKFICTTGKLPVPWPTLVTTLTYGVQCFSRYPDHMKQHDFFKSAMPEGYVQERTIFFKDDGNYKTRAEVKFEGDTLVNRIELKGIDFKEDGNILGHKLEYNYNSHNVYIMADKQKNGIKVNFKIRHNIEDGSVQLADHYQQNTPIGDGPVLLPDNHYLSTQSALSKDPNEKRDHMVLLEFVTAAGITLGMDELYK

Turning to `COCc1cc(-c2nc(-c3ccc(NCCC(=O)OC(C)(C)C)nc3)no2)ccc1-c1ccccc1C` [Example 1, tert-butyl N-(5-{5-[2-(methoxymethyl)-2′-methylbiphenyl-4-yl]-1,2,4-oxadiazol-3-yl}pyridin-2-yl)-beta-alaninate], in assay [1], the EC50 amounted to 134 nM.
As to `COCc1cc(-c2nc(-c3cnc(N)cn3)no2)ccc1-c1ccccc1C` [Example 16, 5-{5-[2-(methoxymethyl)-2′-methylbiphenyl-4-yl]-1,2,4-oxadiazol-3-yl}pyrazin-2-amine], the EC50 in assay [1] was found to be 72.8 nM.
Take `COCc1cc(-c2nc(-c3ccc(NC(C)=O)nc3)no2)ccc1-c1ccccc1C` [Example 5, N-(5-{5-[2-(methoxymethyl)-2′-methylbiphenyl-4-yl]-1,2,4-oxadiazol-3-yl}pyridin-2-yl)acetamide, hydrochloride salt]: the EC50 in assay [1] came out at 14.6 nM.
Still for that read-out and setting: as for `COCc1cc(-c2nc(-c3ccc(C(N)=O)nc3)no2)ccc1-c1ccccc1C` [Example 26, 5-{5-[2-(methoxymethyl)-2′-methylbiphenyl-4-yl]-1,2,4-oxadiazol-3-yl}pyridine-2-carboxamide], the figure is 45.2 nM; as for `COCc1cc(-c2nc(-c3ccc(N4CCCC4)nc3)no2)ccc1-c1ccccc1C` [Example 31, 5-{5-[2-(methoxymethyl)-2′-methylbiphenyl-4-yl]-1,2,4-oxadiazol-3-yl}-2-pyrrolidin-1-ylpyridine], 873 nM.
The same measure, in the same setting: as for `COCc1cc(-c2nc(-c3ccc(NCC(=O)O)nc3)no2)ccc1-c1ccccc1C` [Example 3, N-(5-{5-[2-(methoxymethyl)-2′-methylbiphenyl-4-yl]-1,2,4-oxadiazol-3-yl}pyridin-2-yl)glycine, hydrochloride salt], the figure is 131 nM; as for `COCc1cc(-c2nc(-c3ccc(C(=O)O)nc3)no2)ccc1-c1ccccc1C` [Example 25, 5-{5-[2-(methoxymethyl)-2′-methylbiphenyl-4-yl]-1,2,4-oxadiazol-3-yl}pyridine-2-carboxylic acid, hydrochloride salt], 39.9 nM; as for `Cc1ccccc1-c1ccc(-c2nc(-c3ccc(N)nc3)no2)cc1C(F)(F)F` [Example 19, 5-{5-[2′-methyl-2-(trifluoromethyl)biphenyl-4-yl]-1,2,4-oxadiazol-3-yl}pyridin-2-amine], 22.3 nM.
On the same count and under the same terms, for `COCc1cc(-c2nc(-c3cnc(NCC(=O)O)c(Cl)c3)no2)ccc1-c1ccccc1C` [Example 38, N-(3-chloro-5-{5-[2-(methoxymethyl)-2′-methylbiphenyl-4-yl]-1,2,4-oxadiazol-3-yl}pyridin-2-yl)glycine, hydrochloride salt] the value was 29.1 nM; for `CC1CCCCN1c1ccc(-c2nc(-c3cnc(N)c(Cl)c3)no2)cc1C(F)(F)F` (stereo not drawn) [Example 39, 3-chloro-5-{5-[4-(2-methylpiperidin-1-yl)-3-(trifluoromethyl)phenyl]-1,2,4-oxadiazol-3-yl}pyridin-2-amine], 32.6 nM.
With `COCc1cc(-c2nc(-c3ccnc(CN(C)CC(=O)O)c3)no2)ccc1-c1ccccc1C` [Example 68, 2-(((4-(5-(2-(methoxymethyl)-2′-methylbiphenyl-4-yl)-1,2,4-oxadiazol-3-yl)pyridin-2-yl)methyl)(methyl)amino)acetic acid], the concentration for half-maximal inhibition (IC50) (as a rule, the concentration needed to halve the response being measured) worked out at 8.55e-07 M in assay [2] (setting [5]), 1.08e-06 M in assay [2] (setting [6]), 1.79e-09 M in assay [4] (setting [7]) and 1.18e-08 M in assay [4] (setting [8]). The EC50 in assay [3] turned out to be 10.5 nM.
Consider `COCc1cc(-c2nc(-c3cnc(NCCCC(=O)O)c(C)c3)no2)ccc1-c1ccccc1F` [Example 55, 4-[(5-{5-[2′-fluoro-2-(methoxymethyl)biphenyl-4-yl]-1,2,4-oxadiazol-3-yl}-3-methylpyridin-2-yl)amino]butanoic acid, hydrochloride salt], for which the IC50 in assay [2] (setting [5]) stood at 2.82e-06 M; in assay [2] (setting [6]), 3.39e-06 M; in assay [4] (setting [7]), 6.02e-09 M. This compound registered an EC50 in assay [3] of 64.5 nM.
Consider `O=C(O)CCNc1ncc(-c2noc(-c3ccc(-c4ccccc4F)c(C(F)(F)F)c3)n2)cc1Cl` [Example 63, N-(3-chloro-5-{5-[2′-fluoro-2-(trifluoromethyl)biphenyl-4-yl]-1,2,4-oxadiazol-3-yl}pyridin-2-yl)-beta-alanine], for which the IC50 in assay [2] (setting [5]) worked out at 3.87e-06 M; in assay [4] (setting [7]) it was 5.4e-09 M; in assay [4] (setting [8]) it was 1.73e-08 M. Also, in assay [3], the EC50 came out at 50 nM.
Turning to `COCc1cc(-c2nc(-c3cnc(NCCC(=O)O)c(Cl)c3)no2)ccc1-c1ccccc1F` [Example 48, N-(3-chloro-5-{5-[2′-fluoro-2-(methoxymethyl)biphenyl-4-yl]-1,2,4-oxadiazol-3-yl}pyridin-2-yl)-beta-alanine, hydrochloride salt], the 50% inhibitory concentration (IC50) in assay [2] (setting [5]) was 1.37e-06 M; in assay [4] (setting [7]), 3.15e-09 M. In assay [3], this compound registered an EC50 of 28.7 nM.
For the compound `CCOc1cc(-c2nc(-c3cnc(NCCC(=O)O)c(Cl)c3)no2)ccc1-c1ccccc1C(F)(F)F` [Example 71, N-(3-chloro-5-{5-[2-ethoxy-2′-(trifluoromethyl)biphenyl-4-yl]-1,2,4-oxadiazol-3-yl}pyridin-2-yl)-beta-alanine, hydrochloride salt], the IC50 in assay [2] (setting [5]) came out at 5.75e-06 M; in assay [2] (setting [6]), 8.92e-06 M; in assay [4] (setting [8]), 3.4e-09 M. Besides, in assay [3], the EC50 was determined as 21.3 nM.
Regarding `Cc1ccccc1-c1ccc(-c2nc(-c3cnc(NCCC(=O)O)c(C)c3)no2)cc1C(F)(F)F` [Example 59, N-(3-methyl-5-{5-[2′-methyl-2-(trifluoromethyl)biphenyl-4-yl]-1,2,4-oxadiazol-3-yl}pyridin-2-yl)-beta-alanine, hydrochloride salt], the IC50 is 2e-05 M in assay [2] (setting [5]), 1.04e-08 M in assay [4] (setting [7]) and 4.56e-08 M in assay [4] (setting [8]). Also, the EC50 in assay [3] is 156 nM.
For `CCOc1cc(-c2nc(-c3cnc(NCCC(=O)O)c(Cl)c3)no2)ccc1-c1ccccc1C` [Example 65, N-{3-chloro-5-[5-(2-ethoxy-2′-methylbiphenyl-4-yl)-1,2,4-oxadiazol-3-yl]pyridin-2-yl}-beta-alanine, hydrochloride salt], the IC50 in assay [2] (setting [5]) turned out to be 1.6e-06 M; in assay [2] (setting [6]), 2.41e-06 M; in assay [4] (setting [7]) it was 2.07e-09 M; in assay [4] (setting [8]), 7.95e-09 M. The EC50 in assay [3] is 16.1 nM.
